{
  "source": "patent US12447137B2",
  "about": "“Composition for prevention, amelioration, or treatment of cancer” (EWHA UNIVERSITY—INDUSTRY COLLABORATION FOUNDATION, priority 2019, dated 2025)",
  "key": {"[1]": {"tested_on": "4T1-luc orthotopic graft (fat pad, s.c.)", "test": "Survival rate in orthotopic animal model", "format": "in vivo, mouse", "details": "20 mg/kg intraperitoneal once every 3 days, 6 times; compared to Vehicle; FIG. 8D", "from_the_text": "(§1) After 4-week-old athymic nude mice (female) were purchased, only healthy mice were selected while the mice were adapted to the environment of the animal breeding room for 7 days. For identification of each mouse, the ears were marked using an ear punch. In addition, the breeding box was identified by attaching a mouse identification card describing the test number, test substance name, test item, receipt date, test date, test content, and the person in charge of the test. The environment of the animal breeding room was maintained at a temperature of 22±3° C., a relative humidity of 50±20%, 10 to 15 ventilations/hour, a 12-hour light (8:30 to 20:30)/dark cycle, and an illuminance of 150 to 300 lux. In addition, the animals were fed feed and drinking water during the breeding period, and quarantined during the acclimatization and testing periods.\nThe nude mice were anesthetized by inhalation with 2.5% isoflurane, and then injected with the mouse breast cancer cell line 4T1-luc of Experimental Method 1 by a sterile syringe. […]\nDuring a period ranging from the day the mouse breast cancer cell line 4T1-luc was injected to the end of the experiment (the date of death), the volume of the tumor was measured once every 3 days and the survival rate of the animal model was checked every day. […]"}, "4T1 cell line": {"tested_on": "4T1 cell line", "test": "Flow cytometry assay (Annexin V / PI)", "format": "cell-based, mouse", "details": "4T1, 0 to 30 μM, 24 hours; FIG. 6", "method": "(§2) The breast cancer cell line of Experimental Method 1 was treated with the compound of Production Example 6 at a concentration of 0 to 30 μM and cultured for 24 hours. Thereafter, the cultured cells were detached by trypsin, and then double-stained with Annexin V; recognizing apoptosis) and PI (propidium iodide; recognizing cell necrosis), and then the pattern and level of apoptosis were measured using flow cytometry."}, "[2]": {"tested_on": "cleaved-PARP, Bcl-2 and Cyclin D1 proteins", "test": "Apoptosis marker Western blot in 4T1 cell line", "format": "cell-based, mouse", "details": "FIG. 5"}, "[3]": {"test": "Body weight / toxicity in xenograft animal model", "format": "in vivo, mouse", "details": "4 mg/kg tail vein (IV) once every 3 days, 6 times; FIG. 8C", "from_the_text": "as §1, with “periods. […]” for “periods.”\n(§3) During a period ranging from the day the mouse breast cancer cell line 4T1-luc was injected to the end of the experiment (dissection date), the tumor volume was measured every day. […] In order to confirm the tumor regression effect, the volume of the tumor was measured before administration of the compound of Production Example 6, and at day 28 after the first administration of the compound of Production Example 6, the animals were euthanized, and the primary tumors were excised and their volumes were compared."}, "[4]": {"tested_on": "4T1-luc xenograft (flank, s.c.)", "test": "Tumor regression in xenograft animal model", "format": "in vivo, mouse", "details": "4 mg/kg tail vein (IV) once every 3 days, 6 times; compared to Vehicle; FIG. 8A, 8B", "from_the_text": "as §1, with “periods. […]” for “periods.”\nas §3"}, "MDA-MB-231 cell line": {"tested_on": "MDA-MB-231 cell line", "test": "Flow cytometry assay (Annexin V / PI)", "format": "cell-based, human", "details": "MDA-MB-231, 0 to 30 μM, 24 hours; FIG. 6", "method": "as §2"}, "p-AMPK (Thr172)": {"tested_on": "p-AMPK (Thr172)", "test": "AMPK activation by p-AMPK (Thr172) Western blot in BT549 cells", "format": "cell-based, human", "details": "BT549, 10 μM, 24 hours; FIG. 3B", "method": "[3-1] The breast cancer cell line of Experimental Method 1 above was treated with the compound of Production Example 6 at a concentration of 0 to 30 μM, and then cultured for 24 hours. Thereafter, the cells were harvested and lysed in RIPA buffer, and the protein was electrophoresed by SDS-PAGE, and then the expression level of the protein was analyzed using antibodies specific for AMPK and phospho-AMPK (Thr172). GAPDH or β-actin was used as a loading control for protein quantification.\n[3-2] The three breast cancer cell lines (4T1, BT549, and MDA-MB-231) of Experimental Method 1 were treated with each of the compound of Production Example 6 and 13 compounds, including the compounds of Production Examples 1 to 5 and 8 to 15 having a similar structure (YE-01, 02, 03, 04, 05, 08, 09, 10, 11, 12, 13, 14 and 15), at a concentration of 10 μM, and then cultured for 24 hours. […] Thereafter, the cells were harvested and lysed in RIPA buffer, and the protein was electrophoresed by SDS-PAGE, and then the expression level of the protein was analyzed using antibodies specific for AMPK and phospho-AMPK (Thr172). GAPDH or β-actin was used as a loading control for protein quantification."}, "[5]": {"tested_on": "cleaved-PARP, Bcl-2 and Cyclin D1 proteins", "test": "Apoptosis marker Western blot in MDA-MB-231 cell line", "format": "cell-based, human", "details": "FIG. 5"}, "[6]": {"tested_on": "4T1-luc orthotopic graft (fat pad, s.c.)", "test": "Tumor (lung) metastasis in orthotopic animal model, IVIS luminescence", "format": "in vivo, mouse", "details": "20 mg/kg intraperitoneal at 2-day intervals; compared to Vehicle; FIG. 9A, 9B", "from_the_text": "as §1, with “periods. […]” for “periods.”\nDuring a period ranging from the day the mouse breast cancer cell line 4T1-luc cell line was injected to the end of the experiment (dissection date), lung metastasis of the cancer cell line was checked at intervals of 1 to 2 days. After the animal model was anesthetized by inhalation with 2.5% isoflurane, luminescence intensity was measured using an in-vivo imaging system (IVIS). […]"}},
  "data": [
    {"smiles": "COc1ccc(OC)c(/C=C/C(=O)c2ccc(NS(=O)(=O)c3ccc(Cl)cc3)cc2)c1", "note": "[Production Example 6, (E)-4-chloro-N-(4-(3-(2,5-dimethoxyphenyl)acryloyl)phenyl)benzenesulfonamide]", "values": [
      {"measurement": "survival rate", "setting": "[1]", "value": "significantly improved"},
      {"measurement": "cells stained with annexin V or PI", "setting": "4T1 cell line", "value": "increased in a concentration-dependent manner"},
      {"measurement": "level of Bcl-2 protein", "setting": "[2]", "value": "decreased"},
      {"measurement": "level of Cyclin D1 protein", "setting": "[2]", "value": "decreased"},
      {"measurement": "level of apoptosis marker cleaved-PARP protein", "setting": "[2]", "value": "increased"},
      {"measurement": "weight loss depending on the breeding time", "setting": "[3]", "value": "no weight loss"},
      {"measurement": "volume of the tumor", "setting": "[4]", "value": "decreased"},
      {"measurement": "cells stained with annexin V or PI", "setting": "MDA-MB-231 cell line", "value": "increased in a concentration-dependent manner"},
      {"measurement": "p-AMPK level", "setting": "p-AMPK (Thr172)", "value": "effectively increased"},
      {"measurement": "level of Bcl-2 protein", "setting": "[5]", "value": "decreased"},
      {"measurement": "level of Cyclin D1 protein", "setting": "[5]", "value": "decreased"},
      {"measurement": "level of apoptosis marker cleaved-PARP protein", "setting": "[5]", "value": "increased"},
      {"measurement": "luminescence intensity in the lung (4T1-luc lung metastasis)", "setting": "[6]", "value": "significantly decreased"}
    ]}
  ]
}
